System: HT29 cells
Test: Inhibition of cell necrosis (CCK8 method), induced programmed necrosis of HT29 cells
Type: cell-based
Conditions: Homo sapiens, HT-29; rescue from necrosis induced by TNF-α 20 ng/mL, AT-406 1 μM, Z-VAD-FMK 20 μM; 16-20 hours; CCK-8, OD 450 nm
In short: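 Rescue from programmed necrosis was scored by CCK-8 absorbance at 450 nm after 16-20 h of TNF-α (20 ng/mL), AT-406 (1 μM) and Z-VAD-FMK (20 μM) at 37 °C, 5% CO2. HT29 cells had received compound 30 min earlier across nine 4-fold dilutions (top 25000 nM final). IC50 came from % inhibition relative to uninduced and induced-only wells.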

Structure (SMILES) | IC50 [nM]
Cc1ccc(OCC#N)cc1-c1ccnc(NC(=O)c2nnc(Cc3ccccc3)[nH]2)c1 [Example 120, 5-benzyl-N-(4-(5-(cyanomethoxy)-2-methylphenyl)pyridin-2-yl)-4H-1,2,4-triazole-3-carboxamide] | 100 to 1000
CC(C)(O)CCCOc1ccc(Cl)c(-c2ccnc(NC(=O)c3nnc(C(O)c4ccccc4F)[nH]3)c2)c1 (stereo not drawn) [Example 476, N-(4-(2-chloro-5-((4-hydroxy-4-methylpentyl)oxy)phenyl)pyridin-2-yl)-5-((2-fluorophenyl)(hydroxyl)methyl)-4H-1,2,4-triazole-3-carboxamide] | 100 to 1000
Cc1ccc(OCC2CCOCC2)cc1-c1cc(NC(=O)c2nnc(Cc3ccccc3)[nH]2)ncn1 [Example 441, 5-benzyl-N-(6-(2-methyl-5-((tetrahydro-2H-pyran-4-yl)methoxy)phenyl)pyrimidin-4-yl)-4H-1,2,4-triazole-3-carboxamide] | ≤ 100
O=C(Nc1cc(-c2cc(OCC3CCOCC3)ccc2Cl)c(F)cn1)c1nnc(CC2CCCCC2)[nH]1 [Example 423, N-(4-(2-chloro-5-((tetrahydro-2H-pyran-4-yl)methoxy)phenyl)-5-fluoropyridin-2-yl)-5-(cyclohexylmethyl)-4H-1,2,4-triazole-3-carboxamide] | ≤ 100
CCOc1ccc(Cl)c(-c2ccnc(NC(=O)c3nnc(Cc4ccccc4)[nH]3)c2)c1 [Example 106, 5-benzyl-N-(4-(2-chloro-5-ethoxyphenyl)pyridin-2-yl)-4H-1,2,4-triazole-3-carboxamide] | 1000 to 10000
CC(C)(O)CCCOc1ccc(F)c(-c2cc(NC(=O)c3nnc(Cc4ccccc4F)[nH]3)ncc2F)c1 [Example 318, N-(5-fluoro-4-(2-fluoro-5-((4-hydroxy-4-methylpentyl)oxy)phenyl)pyridin-2-yl)-5-(2-fluorobenzyl)-4H-1,2,4-triazole-3-carboxamide] | ≤ 100
CC(C)(C)OCCOc1ccc(C(F)(F)F)c(-c2ccnc(NC(=O)c3nnc(CC4CCCCC4)[nH]3)c2)c1 [Example 294, 5-(cyclohexylmethyl)-N-(4-(5-(2-(tert-butoxy)ethoxy)-2-(trifluoromethyl)phenyl)pyridin-2-yl)-4H-1,2,4-triazole-3-carboxamide] | ≤ 100
CC(C)(O)CCCOc1ccc(C(F)(F)F)c(-c2ccnc(NC(=O)c3nnc(CC4CCCC4)[nH]3)c2)c1 [Example 258, 5-(cyclopentylmethyl)-N-(4-(5-((4-hydroxy-4-methylpentyl)oxy)-2-(trifluoromethyl)phenyl)pyridin-2-yl)-4H-1,2,4-triazole-3-carboxamide] | ≤ 100
COc1ccc(C)c(-c2ccnc(NC(=O)c3nnc(CC4CCCCC4)[nH]3)c2)c1 [Example 103, 5-(cyclohexylmethyl)-N-(4-(5-methoxy-2-methylphenyl)pyridin-2-yl)-4H-1,2,4-triazole-3-carboxamide] | 100 to 1000
Cc1ccc(OCCCCO)cc1-c1ccnc(NC(=O)c2nnc(Cc3ccccc3)[nH]2)c1 [Example 151, 5-benzyl-N-(4-(5-(4-hydroxybutoxy)-2-methylphenyl)pyridin-2-yl)-4H-1,2,4-triazole-3-carboxamide] | ≤ 100
O=C(Nc1cc(-c2ccccc2Cl)ccn1)c1nnc(Cc2ccccc2)[nH]1 [Example 7, 5-benzyl-N-(4-(2-chlorophenyl)pyridin-2-yl)-4H-1,2,4-triazole-3-carboxamide] | 100 to 1000
COc1ccc(C)c(-c2cncc(NC(=O)c3nnc(Cc4ccccc4)[nH]3)c2)c1 [Example 196, 5-benzyl-N-(5-(5-methoxy-2-methylphenyl)pyridin-3-yl)-4H-1,2,4-triazole-3-carboxamide] | > 10000
CCOCCOc1ccc(C(F)(F)F)c(-c2ccnc(NC(=O)c3nnc(CC4CCCCC4)[nH]3)c2)c1 [Example 286, 5-(cyclohexylmethyl)-N-(4-(5-(2-ethoxyethoxy)-2-(trifluoromethyl)phenyl)pyridin-2-yl)-4H-1,2,4-triazole-3-carboxamide] | ≤ 100
CC(C)OCCOc1ccc(Cl)c(-c2ccnc(NC(=O)c3nnc(CC4CCCCC4)[nH]3)c2)c1 [Example 390, N-(4-(2-chloro-5-(2-isopropoxyethoxy)phenyl)pyridin-2-yl)-5-(cyclohexylmethyl)-4H-1,2,4-triazole-3-carboxamide] | ≤ 100
COCCCOc1ccc(C(F)(F)F)c(-c2ccnc(NC(=O)c3nnc(CC4CCCC4)[nH]3)c2)c1 [Example 297, 5-(cyclopentylmethyl)-N-(4-(5-(3-methoxypropoxy)-2-(trifluoromethyl)phenyl)pyridin-2-yl)-4H-1,2,4-triazole-3-carboxamide] | ≤ 100
COc1cccc(C)c1-c1ccnc(NC(=O)c2nnc(Cc3ccccc3)[nH]2)c1 [Example 92, 5-benzyl-N-(4-(2-methoxy-6-methylphenyl)pyridin-2-yl)-4H-1,2,4-triazole-3-carboxamide] | 100 to 1000
CC(C)(O)CCCOc1ccc(Cl)c(-c2cc(NC(=O)c3nnc(Cc4ccccc4F)[nH]3)ncn2)c1 [Example 463, 5-(2-fluorobenzyl)-N-(6-(2-chloro-5-((4-hydroxy-4-methylpentyl)oxy)phenyl)pyrimidin-4-yl)-4H-1,2,4-triazole-3-carboxamide] | ≤ 100
O=C(Nc1cc(-c2cc(OCCC3CCOCC3)ccc2F)ccn1)c1nnc(Cc2ccccc2F)[nH]1 [Example 316, N-(4-(2-fluoro-5-(2-(tetrahydro-2H-pyran-4-yl)ethoxy)phenyl)pyridin-2-yl)-5-(2-fluorobenzyl)-4H-1,2,4-triazole-3-carboxamide] | 100 to 1000
Cc1ccc(OCCCC(C)(C)O)cc1-c1ccnc(NC(=O)c2nnc(Cc3cc(F)cc(C(F)(F)F)c3)[nH]2)c1 [Example 213, 5-(3-fluoro-5-trifluoromethylbenzyl)-N-(4-(5-((4-hydroxy-4-methylpentyl)oxy)-2-methylphenyl)pyridin-2-yl)-4H-1,2,4-triazole-3-carboxamide] | 1000 to 10000
COCCCOc1ccc(Cl)c(-c2ccnc(NC(=O)c3nnc(Cc4ccccc4)[nH]3)c2)c1 [Example 395, 5-benzyl-N-(4-(2-chloro-5-(3-methoxypropoxy)phenyl)pyridin-2-yl)-4H-1,2,4-triazole-3-carboxamide] | ≤ 100
CC(C)Oc1ccc(Cl)c(-c2ccnc(NC(=O)c3nnc(Cc4ccccc4)[nH]3)c2)c1 [Example 111, 5-benzyl-N-(4-(2-chloro-5-isopropoxyphenyl)pyridin-2-yl)-4H-1,2,4-triazole-3-carboxamide] | ≤ 100
CCc1ccc(OC)c(-c2ccnc(NC(=O)c3nnc(Cc4ccccc4)[nH]3)c2)c1 [Example 104, 5-benzyl-N-(4-(5-ethyl-2-methoxyphenyl)pyridin-2-yl)-4H-1,2,4-triazole-3-carboxamide] | 1000 to 10000
O=C(Nc1cc(-c2cc(OCCC3CCOCC3)ccc2C(F)(F)F)ccn1)c1nnc(CC2CCCC2)[nH]1 [Example 309, 5-(cyclopentylmethyl)-N-(4-(5-(2-(tetrahydro-2H-pyran-4-yl)ethoxy)-2-(trifluoromethyl)phenyl)pyridin-2-yl)-4H-1,2,4-triazole-3-carboxamide] | ≤ 100
CC(C)(O)CCCOc1ccc(C(F)(F)F)c(-c2ccnc(NC(=O)c3nnc(CC4CCCCC4)[nH]3)c2)c1 [Example 259, 5-(cyclohexylmethyl)-N-(4-(5-((4-hydroxy-4-methylpentyl)oxy)-2-(trifluoromethyl)phenyl)pyridin-2-yl)-4H-1,2,4-triazole-3-carboxamide] | ≤ 100
